From patent US20230183237A1, “COMPETITIVE AND NONCOMPETITIVE INHIBITORS OF THE MUSCARINIC ACETYLCHOLINE RECEPTOR M5” (Vanderbilt University, priority 2020, published 2023)

Biological target: T1, hM5 (Homo sapiens, UniProt P08912)
T1 construct: expressed in transfected cells
T1 sequence (P08912 1-532): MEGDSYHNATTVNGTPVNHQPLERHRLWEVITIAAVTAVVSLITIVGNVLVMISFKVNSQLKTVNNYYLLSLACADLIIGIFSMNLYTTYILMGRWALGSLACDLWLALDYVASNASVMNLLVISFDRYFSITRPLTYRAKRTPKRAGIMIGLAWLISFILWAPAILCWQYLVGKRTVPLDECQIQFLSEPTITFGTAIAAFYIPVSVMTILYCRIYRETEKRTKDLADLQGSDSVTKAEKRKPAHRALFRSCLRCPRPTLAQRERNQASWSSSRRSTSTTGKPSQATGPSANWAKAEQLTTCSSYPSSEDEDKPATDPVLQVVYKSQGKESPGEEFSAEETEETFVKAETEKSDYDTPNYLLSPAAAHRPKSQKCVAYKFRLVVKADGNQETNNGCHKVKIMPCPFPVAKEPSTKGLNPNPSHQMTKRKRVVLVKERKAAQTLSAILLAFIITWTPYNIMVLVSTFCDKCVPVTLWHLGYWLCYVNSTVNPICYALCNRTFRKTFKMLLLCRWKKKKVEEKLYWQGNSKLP
Assay: Calcium mobilization concentration-response (IC50 vs EC80 acetylcholine), CHO hM5
Assay type: cell-based
Details: CELL LINE hM5; calcium mobilization, EC80 acetylcholine addition; read-out: IC50
In short: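 IC50 values derive from percent maximal acetylcholine response after an EC80 ACh addition, measured as kinetic calcium fluorescence (static ratio, max−min). Test compounds were added 140 s before agonist. Cells: stable hM5-CHO in HEPES-buffered HBSS with 2.5 mM probenecid, pH 7.4; ≥3 independent triplicate determinations.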

| Structure (SMILES) | IC50 |
| --- | --- |
| O=S(=O)(c1cnn2c1CCC2)N1CCC(c2ccncc2)CC1 [Compound 366, 3-((4-(pyridin-4-yl)piperidin-1-yl)sulfonyl)-5,6-dihydro-4H-pyrrolo[1,2-b]pyrazole] | > 10 µM |
| Cc1c(S(=O)(=O)N2CCC(c3cn4ncnc4cc3C3CC3)CC2)cnn1C [Compound 345, 7-cyclopropyl-6-(1-((1,5-dimethyl-1H-pyrazol-4-yl)sulfonyl)piperidin-4-yl)-[1,2,4]triazolo[1,5-a]pyridine] | 0.134 µM |
| Cc1cc2ncnn2cc1C1CCN(S(=O)(=O)c2ccc3c(c2)C(C)CO3)CC1 (stereo not drawn) [Compound 73, 7-methyl-6-(1-((3-methyl-2,3-dihydrobenzofuran-5-yl)sulfonyl)piperidin-4-yl)-[1,2,4]triazolo[1,5-a]pyridine] | 0.069 µM |
| O=S(=O)(c1ccc2c(c1)CCO2)N1CCC(c2cc3cc[nH]c3nn2)CC1 [Compound 21, 3-(1-((2,3-dihydrobenzofuran-5-yl)sulfonyl)piperidin-4-yl)-7H-pyrrolo[2,3-c]pyridazine] | 2.2 µM |
| Cc1nc(C)c(S(=O)(=O)N2CCC(c3cn4ncnc4cc3F)CC2)s1 [Compound 235, 5-((4-(7-fluoro-[1,2,4]triazolo[1,5-a]pyridin-6-yl)piperidin-1-yl)sulfonyl)-2,4-dimethylthiazole] | > 10 µM |
| Cc1cc2nccnc2cc1C1=CCN(S(=O)(=O)c2cnn(C)c2Cl)CC1 [Compound 355, 6-(1-((5-chloro-1-methyl-1H-pyrazol-4-yl)sulfonyl)-1,2,3,6-tetrahydropyridin-4-yl)-7-methylquinoxaline] | 0.157 µM |
| O=S(=O)(c1ccc2c(c1)CCO2)N1CCC(c2cn3ncnc3cc2F)CC1 [Compound 105, 6-(1-((2,3-dihydrobenzofuran-5-yl)sulfonyl)piperidin-4-yl)-7-fluoro-[1,2,4]triazolo[1,5-a]pyridine] | 2.1 µM |
| Cc1nn(C)c(Cl)c1S(=O)(=O)N1CCC(c2cn3ncnc3c(F)c2C)CC1 [Compound 318, 6-(1-((5-chloro-1,3-dimethyl-1H-pyrazol-4-yl)sulfonyl)piperidin-4-yl)-8-fluoro-7-methyl-[1,2,4]triazolo[1,5-a]pyridine] | 0.015 µM |
| O=S(=O)(c1ccc2c(c1)CCO2)N1CCC(c2ccc3occc3n2)CC1 [Compound 28, 5-(1-((2,3-dihydrobenzofuran-5-yl)sulfonyl)piperidin-4-yl)furo[3,2-b]pyridine] | > 10 µM |
| CCc1cc2ncnn2cc1C1CCN(S(=O)(=O)c2cnn3c2CCC3)CC1 [Compound 299, 6-(1-((5,6-dihydro-4H-pyrrolo[1,2-b]pyrazol-3-yl)sulfonyl)piperidin-4-yl)-7-ethyl-[1,2,4]triazolo[1,5-a]pyridine] | 0.026 µM |
| Cc1c(S(=O)(=O)N2CC=C(c3cc4c(cc3Cl)N(C)CCO4)CC2)cnn1C [Compound 376, 6-chloro-7-(1-((1,5-dimethyl-1H-pyrazol-4-yl)sulfonyl)-1,2,3,6-tetrahydropyridin-4-yl)-4-methyl-3,4-dihydro-2H-benzo[b][1,4]oxazine] | 1.45 µM |
| Cc1cc2ncnn2cc1[C@@H]1CCN(S(=O)(=O)c2cnn3c2CCCC3)C[C@H]1O (racemic) [Compound 270, (rac)-trans-4-(7-methyl-[1,2,4]triazolo[1,5-a]pyridin-6-yl)-1-((4,5,6,7-tetrahydropyrazolo[1,5-a]pyridin-3-yl)sulfonyl)piperidin-3-ol] | 0.105 µM |
| O=S(=O)(c1ccc2c(c1)CCO2)N1CCC(c2cc3cc[nH]c3cn2)CC1 [Compound 24, 5-(1-((2,3-dihydrobenzofuran-5-yl)sulfonyl)piperidin-4-yl)-1H-pyrrolo[2,3-c]pyridine] | > 10 µM |
| O=S(=O)(c1ccc2c(c1)CCO2)N1CCC(c2cc3ccncc3s2)CC1 [Compound 13, 2-(1-((2,3-dihydrobenzofuran-5-yl)sulfonyl)piperidin-4-yl)thieno[2,3-c]pyridine] | > 10 µM |
| O=S(=O)(c1ccc2c(c1)CCO2)N1CCC(c2nc3cc(F)ccc3[nH]2)CC1 [Compound 5, 2-(1-((2,3-dihydrobenzofuran-5-yl)sulfonyl)piperidin-4-yl)-5-fluoro-in-benzo[d]imidazole] | > 10 µM |
| O=S(=O)(c1ccc2c(c1)CCO2)N1CCC(c2ccncc2)CC1 [Compound 2, 4-(1-((2,3-dihydrobenzofuran-5-yl)sulfonyl)piperidin-4-yl)pyridine] | > 10 µM |
| O=S(=O)(c1cnn2c1OCCC2)N1CCC(c2ccncc2)CC1 [Compound 367, 3-((4-(pyridin-4-yl)piperidin-1-yl)sulfonyl)-6,7-dihydro-5H-pyrazolo[5,1-b][1,3]oxazine] | > 10 µM |
| Cc1cc2ncnn2cc1C1=CCN(S(=O)(=O)c2ccc3c(c2)C(C)(C)CO3)CC1 [Compound 64, 6-(1-((3,3-dimethyl-2,3-dihydrobenzofuran-5-yl)sulfonyl)-1,2,3,6-tetrahydropyridin-4-yl)-7-methyl-[1,2,4]triazolo[1,5-a]pyridine] | > 10 µM |
| O=S(=O)(c1ccc2c(c1)CCO2)N1CCC(c2nnc(NCc3ccccc3)cc2C(F)(F)F)CC1 [Compound 44] | 5.6 µM |
| Cc1ccncc1C1CCN(S(=O)(=O)c2cnn(C)c2Cl)CC1 [Compound 383, 3-(1-((5-chloro-1-methyl-1H-pyrazol-4-yl)sulfonyl)piperidin-4-yl)-4-methylpyridine] | 1.64 µM |
| O=S(=O)(c1cnc2ccccn12)N1CCC(c2cn3ncnc3cc2F)CC1 [Compound 327, 7-fluoro-6-(1-(imidazo[1,2-a]pyridin-3-ylsulfonyl)piperidin-4-yl)-[1,2,4]triazolo[1,5-a]pyridine] | 0.774 µM |

Same assay, conditions: CELL LINE hM5; vs EC80 acetylcholine; read-out: IC50

| Structure (SMILES) | IC50 |
| --- | --- |
| Cc1ncc(S(=O)(=O)N2CCC(c3cn4ncnc4cc3CF)CC2)o1 [Compound 623, 5-((4-(7-(fluoromethyl)-[1,2,4]triazolo[1,5-a]pyridin-6-yl)piperidin-1-yl)sulfonyl)-2-methyloxazole] | 0.246 µM |
| Cc1cc2ncnn2cc1C1(F)CCN(S(=O)(=O)c2cnn3cccnc23)CC1 [Compound 458, 6-(4-fluoro-1-(pyrazolo[1,5-a]pyrimidin-3-ylsulfonyl)piperidin-4-yl)-7-methyl-[1,2,4]triazolo[1,5-a]pyridine] | 0.754 µM |
| [2H]C([2H])([2H])Oc1c(S(=O)(=O)N2CCC(c3cn4ncnc4cc3F)CC2)cnn1C [Compound 616, 7-fluoro-6-(1-((5-(methoxy-d3)-1-methyl-1H-pyrazol-4-yl)sulfonyl)piperidin-4-yl)-[1,2,4]triazolo[1,5-a]pyridine] | 0.655 µM |
| Cc1c(S(=O)(=O)N2CCC(F)(c3cn4ncnc4cc3F)CC2)cnn1C [Compound 501, 6-(1-((1,5-dimethyl-1H-pyrazol-4-yl)sulfonyl)-4-fluoropiperidin-4-yl)-7-fluoro-[1,2,4]triazolo[1,5-a]pyridine] | 2.09 µM |
| O=S(=O)(c1cnc2sccn12)N1CCC(c2cn3ncnc3cc2F)CC1 [Compound 525, 5-((4-(7-fluoro-[1,2,4]triazolo[1,5-a]pyridin-6-yl)piperidin-1-yl)sulfonyl)imidazo[2,1-b]thiazole] | 0.186 µM |
| [2H]C([2H])([2H])OCc1c(S(=O)(=O)N2CCC(c3cn4ncnc4cc3F)CC2)cnn1C [Compound 441, 7-fluoro-6-(1-((5-((methoxy-d3)methyl)-1-methyl-1H-pyrazol-4-yl)sulfonyl)piperidin-4-yl)-[1,2,4]triazolo[1,5-a]pyridine] | > 10 µM |
| Cc1cc2ncnn2cc1C1CCN(S(=O)(=O)c2cnn(C)c2CN2Cc3ncccc3C2=O)CC1 [Compound 597, 6-((1-Methyl-4-((4-(7-methyl-[1,2,4]triazolo[1,5-a]pyridin-6-yl)piperidin-1-yl)sulfonyl)-1H-pyrazol-5-yl)methyl)-6,7-dihydro-5H-pyrrolo[3,4-b]pyridin-5-one] | > 10 µM |
| O=S(=O)(c1cnc(Cl)s1)N1CCC(c2cn3ncnc3cc2Cl)CC1 [Compound 532, 2-chloro-5-((4-(7-chloro-[1,2,4]triazoto[1,5-a]pyridin-6-yl)piperidin-1-yl)sulfonyl)thiazole] | 0.172 µM |
| Cc1ncc(S(=O)(=O)N2CCC(c3cn4ncnc4cc3C)CC2)o1 [Compound 492, 2-methyl-5-((4-(7-methyl-[1,2,4]triazolo[1,5-a]pyridin-6-yl)piperidin-1-yl)sulfonyl)oxazole] | 0.076 µM |
| Cc1cc2ncnn2cc1C1(F)CCN(S(=O)(=O)c2cnn(C)c2C(F)F)CC1 [Compound 422, 6-(1-((5-(difluoromethyl)-1-methyl-1H-pyrazol-4-yl)sulfonyl)-4-fluoropiperidin-4-yl)-7-methyl-[1,2,4]triazolo[1,5-a]pyridine] | 0.086 µM |
| Cc1cc2ncnn2cc1C1=C(C#N)CN(S(=O)(=O)c2cnn(C)c2C)CC1 [Compound 468, 1-((1,5-dimethyl-1H-pyrazol-4-yl)sulfonyl)-4-(7-methyl-[1,2,4]triazolo[1,5-a]pyridin-6-yl)-1,2,5,6-tetrahydropyridine-3-carbonitrile] | 1.63 µM |
| COc1c(S(=O)(=O)N2CCC(c3cn4ncnc4cc3Cl)CC2)cnn1C [Compound 575, 7-chloro-6-(1-((5-methoxy-1-methyl-1H-pyrazol-4-yl)sulfonyl)piperidin-4-yl)-[1,2,4]triazolo[1,5-a]pyridine] | 0.006 µM |
